This data set can be described thus: physchem. The protocol:
In this study, pure salicylic acid (SA) partitioning between cyclohexane and water versus salicylic acid partitioning between cyclohexane and water in SA Formulas A-D was investigated at pH 1 and at pH 7 simulating gastric fluids and duodenum fluids. The study was conducted by adding either SA, SA Formulas A-D into a cyclohexane/water partitioning system and measuring the differential partitioning of SA between the two phase as the value Log P.
In this study, pure naproxen (NAP) partitioning between cyclohexane and water versus NAP partitioning between cyclohexane and water in NAP Formulas A-D was investigated at pH 1 and at pH 7 simulating gastric fluids and duodenum fluids. The study was conducted by adding either NAP, NAP Formulas A-D into a cyclohexane/water partitioning system and measuring the differential partitioning of NAP between the two phase as the value Log P.
In this study, pure indomethacin (INDO) partitioning between cyclohexane and water versus INDO partitioning between cyclohexane and water in INDO Formulas A-D was investigated at pH 1 and at pH 7 simulating gastric fluids and duodenum fluids. The study was conducted by adding either INDO, INDO Formulas A-D into a cyclohexane/water partitioning system and measuring the differential partitioning of INDO between the two phase as the value Log P.
In this study, pure mefenamic acid (MFA) partitioning between cyclohexane and water versus MFA partitioning between cyclohexane and water in MFA Formulas A-D was investigated at pH 1 and at pH 7 simulating gastric fluids and duodenum fluids. The study was conducted by adding either MFA, MFA Formulas A-D into a cyclohexane/water partitioning system and measuring the differential partitioning of MFA between the two phase as the value Log P.

For `COc1ccc2c(c1)c(CC(=O)O)c(C)n2C(=O)c1ccc(Cl)cc1` [INDO, indomethacin], the logD hydrocarbon water was 1.05 (pH 1) and -1.81 (pH 7).

`O=C(O)c1ccccc1O` [SA, salicylic acid]: the logD hydrocarbon water (pH 1) is -1.11 and the logD hydrocarbon water (pH 7) stood at 0.

`Cc1cccc(Nc2ccccc2C(=O)O)c1C` [MFA, mefenamic acid] had a logD hydrocarbon water (pH 1) of 0 and a logD hydrocarbon water (pH 7) of 0.47.
